Experimental data from BigSolDB 2.1.

CN1CCN(C2=Nc3cc(Cl)ccc3Nc3ccccc32)CC1
solubility (mole fraction)
Details	278.15 K	283.15 K	288.15 K	293.15 K	298.15 K	303.15 K	308.15 K	313.15 K	318.15 K	323.15 K
in 2-butanone	0.0216	0.0242	0.0274	0.0303	0.0339	0.0374	0.0416	0.0458	0.0505	0.0558
in DMF	0.0953	0.1	0.106	0.112	0.117	0.123	0.129	0.135	0.141	0.148
in THF	0.0624	0.0668	0.0716	0.0765	0.0815	0.0866	0.0919	0.0978	0.103	0.109
in acetone	0.0116	0.0133	0.0151	0.0172	0.0197	0.0223	0.0251	0.0283	0.0323	0.0363
in acetonitrile	0.00213	0.00234	0.0026	0.00285	0.00316	0.00344	0.0038	0.00413	0.00452	0.0049
in chloroform	0.0625	0.0652	0.0681	0.0712	0.0741	0.0771	0.0801	0.0837	0.0871	0.0905
in ethanol	0.00533	0.0059	0.0066	0.00735	0.00811	0.0089	0.00988	0.0108	0.0119	0.0131
in ethyl acetate	0.0109	0.0121	0.0135	0.0152	0.0169	0.0191	0.0209	0.0232	0.0256	0.0283
in ethyl formate	0.032	0.0343	0.0367	0.0393	0.0419	0.0443	0.047	0.0499	0.0527	0.0564
in isobutanol	0.00666	0.00731	0.00809	0.00888	0.00987	0.0108	0.0119	0.013	0.0142	0.0155
in isopentanol	0.0083	0.00932	0.0103	0.0116	0.0128	0.0142	0.0156	0.0173	0.019	0.0212
in isopropanol	0.00278	0.00322	0.00367	0.00419	0.00487	0.00544	0.00615	0.00693	0.00781	0.00894
in methanol	0.00633	0.00702	0.00766	0.00839	0.00921	0.00999	0.0109	0.012	0.013	0.014
in methyl acetate	0.0124	0.0141	0.0158	0.0173	0.019	0.021	0.0229	0.0251	0.0277	0.0303
in n-butanol	0.00796	0.00891	0.01	0.0113	0.0126	0.0141	0.0154	0.0172	0.0189	0.0208
in n-pentanol	0.00905	0.0102	0.0115	0.0128	0.0143	0.0159	0.0174	0.0193	0.0213	0.0231
in n-propanol	0.00708	0.00814	0.00924	0.0105	0.0118	0.0134	0.0148	0.0164	0.0183	0.0204
in sec-butanol	0.0046	0.00509	0.00566	0.00617	0.0068	0.00744	0.00812	0.00893	0.00975	0.0107
